Data: patent publication US9763442B2, “In situ generation of peroxycarboxylic acids at alkaline pH, and methods of use thereof” (priority 2010, dated 2017)

Columns and labels:
[1] = Coupling of precipitated aqueous POOA by surfactants/hydrotropes; type: physicochemical; conditions: 1000 ppm POOA in DI Water
Experimental: A variety of surfactants were analyzed for coupling and/or dispersion stabilizing of a peroxycarboxylic acid composition generated according to the methods of the invention. In particular, a peroxyoctanoic acid (POOA) composition in deionized water produced according to the invention was analyzed for coupling and/or dispersion stabilization using the dispersing agents set forth in Table 14A.
Given the very limited water solubility of POOA in its protonated form, acidification of the alkaline perhydrolysis solutions of the same causes immediate precipitation and rapid phase separation. In this example various surfactants and hydrotropes were evaluated for their ability to couple the POOA. In Table 14A it can be seen that the most efficient agents for coupling an already precipitated solution of POOA were samples I and II.

[2] = Dispersion stability of acidified POOA solutions with dispersing agents; type: physicochemical; conditions: acidified POOA solution, 10,000 ppm H2SO4; oil sheen = fail
Experimental: The SLS, LAS and SOA dispersing agents were then further examined for efficacy in stabilizing and/or dispersing in 1% or lower sulfuric acid solutions. […] Solution 13 was made as 1 through 12 with the addition of 50 mL of 5 grain hard water to the aliquot of alkaline reaction solution followed by swirling with the surface aliquot and then additional 50 mL of 5 grain hard water, followed within about 5 seconds by 50 mL of 5 grain 2% sulfuric acid and swirled. Solution 14 was made by direct addition of 1% sulfuric acid (5 grain) without pre-dilution, but after moments of swirling with SLS aliquot. All concentrations are shown in ppm. […] The appearance of an oil sheen was regarded as a pass or fail.

CCCCCCCCCCCCOS(=O)(=O)[O-].[Na+] [I, Sodium Lauryl Sulfate]
Amount of (B) Required for Coupling [1]: 0.64 g/200 g aq POOA

CCCCCCCCS(=O)(=O)[O-].[Na+] [VII, Sodium octanesulfonate]
Amount of (B) Required for Coupling [1]: 6.60 g/200 g aq POOA

CCCCC(CC)COC(=O)CC(C(=O)OCC(CC)CCCC)S(=O)(=O)[O-].[Na+] (centres unmarked) [X, Sodium dioctyl Sulfosuccinates]
Amount of (B) Required for Coupling [1]: >2.0 g/200 g aq POOA

Alkyl Polyglycosides [VI]
Amount of (B) Required for Coupling [1]: 2.46 g/200 g aq POOA

Linear Aryl Sulfonate [II]
Amount of (B) Required for Coupling [1]: 0.65 g/200 g aq POOA
Amount of (B) Required for Coupling ([1]; listed as LAS): 0.64 g/200 g aq POOA
oil sheen at 23 h [2]: minimal surface oil

Sodium Lauryl Ether Sulfate [III]
Amount of (B) Required for Coupling [1]: >0.94 g/200 g aq POOA
